In US20240058349A1, “PI3K INHIBITORS FOR PROTECTION AGAINST GLUCOCORTICOID-INDUCED ATROPHY” (Northwestern University, priority 2020, published 2024):

Columns and labels:
Granta xenografts = experiment: Granta lymphoma xenograft tumor growth study; format: in vivo, nu/nu mice; details: 27th day of treatment, vs control; i.p. every 48 h; LY294002 20 mg/kg, Rapa 5 mg/kg, Dex 1 mg/kg
Method: Xenograft tumor growth study. 10 million Granta cells in 200 ul BD Matrigel Matrix were subcutaneously injected into the right flank of 7 weeks old female nu/nu mice (Taconic). Animals were randomized and treated every 48 h with LY294002 (20 mg/kg), Rapamycin (5 mg/kg) of vehicle (30% PEG3350, 4% DMSO, 5% Tween 20 in PBS) followed by Dex (1 mg/kg) of vehicle (5% DMSO in PBS) 6 h later. Body weight was recorded twice a week. Tumor size was measured twice a week by digital calipers, drug interaction mode was calculated based on combination index method (Refs. 16,17; incorporated by reference in their entireties). Combination index (CI) of Dex+Rapa/LY294002 was calculated as ratio (observed fraction value of combination group)/(expected fraction value of combination group). The observed fractions were calculated as ratio (mean value of experiment)/(mean value of control), and the expected fractions values of combination effect between combined groups and single drug groups were calculated as expected fraction=(mean observed fraction of Dex)×(mean observed fraction of Rapa/LY294002). CI<1, CI=1 and CI>1 indicates a synergy, additive effect and antagonism, respectively.
Histological analysis and immunostaining. […] Ki67 and Caspase 3 were detected by immunostaining with antibodies to Ki-67 and Caspase-3 (Cell Signaling, San Jose, CA).
Morphometric analysis. Quantification of the epidermal width, dermal adipose thickness, bone thickness and cellularity of xenograft tissue was performed in sections stained with hematoxylin and eosin. At least 5 individual fields per slide of each individual sample/treatment (at least 50 images/treatment group) were analyzed using Axioplan2 microscope software (Carl Zeiss). […]
Animals were randomized to different treatment groups after tumor volume reached 50 mm3. […] All treatment regiments were only minimally toxic according to the steady increase in body weight monitored twice weekly (FIG. 11). Tumor volume was measured also twice a week (FIG. 12).

Granta cells [1] = experiment: MTT cell viability / cytotoxicity assay in Granta cells; format: cell-based, human; details: for IC50: Homo sapiens, MTT assay, after 24 h treatment
Method: (§1) Cell cultures. Acute lymphoblastic leukemia cell line CEM and mantle cell lymphoma cell line Granta were obtained from ATCC and cultured in RPMI-1640 (Thermo Fischer) with 10% FBS (HyClone), sodium piruvate (10 mM), HEPES (10 mM) and antibiotics (referred thereafter as complete medium; Thermo Fischer) (Ref 14; incorporated by reference in its entirety). Peripheral blood samples were collected from healthy volunteers. The ethical Committee of the Blokhin Cancer Research Center approved this study, written informed consents were provided. Mononuclear cell fraction was isolated by 1.077 g/ml Ficoll-Isopaque density-gradient centrifugation and cultured in the complete medium. Cells were pretreated with Rapa (0.1-5 uM), LY294002 (10-100 uM), WM (1-10 uM) and AZD8055 (0.1-2 uM) or vehicle for 6 h, then were treated for Dex (1-10 uM) or vehicle for 24-144 h as indicated.
(§2) Analysis of cell viability and apoptosis induction. Cell viability was assessed using the MTT assay as follows: cells were incubated at 37° C. for 3 h with 20 ul of MTT solution (5 mg/ml). Supernatant was discarded and 150 μL of 100% DMSO was added to each well. Optical density was measured at 495 nm using a microplate reader MultiScan MCC 340 (Labsystems). The IC50 values was calculated using Quest Graph IC50 Calculator free software. Isobolograms were constructed (Ref 15; incorporated by reference in its entirety). IC50 values of PI3K inhibitors or Dex as single agents were plotted as 1 on the x and y axes, respectively. Various concentrations of PI3K inhibitors and for Dex were combined. The IC50 values for each compound in the combination were calculated and plotted as a percentage of each single drug. The disposition of data points below, above or on the line of additivity indicates synergy, antagonism or additivity, correspondingly.
(§3) PI3K/Akt/mTOR inhibitors were developed as anti-cancer drugs. To assess whether and how PI3K/Akt/mTOR inhibitors interacted with Dex anti-lymphoma effects, experiments were conducted to evaluate the efficacy of the combined treatment in vitro using such readouts as cell viability (MTT test) and apoptosis (PARP cleavage and sub-G1-phase cell population determined by FACS).

[2] = test system: Dex-induced osteoporosis and skin atrophy; experiment: Glucocorticoid-induced osteoporosis (GIOP) and skin atrophy model; format: in vivo, BALB/c female mice
Method: Glucocorticoid-induced osteoporosis (GIOP). GIOP was induced as described (18) by i.p. injection of Dex (10 mg/kg) in 12 weeks old BALB/c female mice (“Stolbovaya”, Moscow region, Russia) every 48 h for 5 weeks. 6 h prior to Dex, animals were treated i.p. with LY294002 (20 mg/kg), Rapamycin (5 mg/kg) of vehicle (30% PEG3350, 4% DMSO, 5% Tween-20 in PBS). Body weight was recorded twice a week.
Histological analysis and immunostaining. Xenograft and skin samples were fixed in formaldehyde, embedded in paraffin, sections were stained with hematoxylin and eosin. The bone samples after formaldehyde fixation were decalcinated in decalcination buffer (0.5 M EDTA, 0.7 mM NaOH, pH=7.0) for 14 days, then washed with PBS twice and further processed according to standard histology protocol. Ki67 and Caspase 3 were detected by immunostaining with antibodies to Ki-67 and Caspase-3 (Cell Signaling, San Jose, CA).
Morphometric analysis. Quantification of the epidermal width, dermal adipose thickness, bone thickness and cellularity of xenograft tissue was performed in sections stained with hematoxylin and eosin. At least 5 individual fields per slide of each individual sample/treatment (at least 50 images/treatment group) were analyzed using Axioplan2 microscope software (Carl Zeiss). The epidermal, dermal adipose, or bone thickness and cell density in treated animals is presented as % to control animals.
To test whether REDD1 inhibitors protect against systemic atrophic effects of Gcs, a model of Gcs-induced osteoporosis in Balb/c female mice was used (18) to assess atrophy in both bone and skin induced by high-dose i.p. Dex injections (10 mg/kg) every 48 h for 5 weeks. LY294002 (20 mg/kg), Rapa (5 mg/kg) or vehicle were injected 6 h prior animal treatment with Dex.

CEM cells [3] = experiment: MTT cell viability / cytotoxicity assay in CEM cells; format: cell-based, human; details: for IC50: Homo sapiens, CCRF-CEM, MTT assay, after 24 h treatment
Method: as §1, §2, §3

GR [4] = experiment: GRE.Luciferase reporter assay (GR transactivation) in CEM and Granta cells; format: cell-based, human
Method: Luciferase assay. GRE.Luc, NF-κB.Luc and control mCMV.Luc reporter cells were generated (Ref. 13; incorporated by reference in its entirety) using viral stocks obtained from Northwestern University SDRC DNA/RNA delivery Core. Luciferase activity was measured (Ref. 10; incorporated by reference in its entirety).
REDD1 is a GR target gene (Refs. 10,21; incorporated by reference in their entireties). To assess whether REDD1 inhibitors could modify GR function, LY294002, WM and AZD8055 effect on GR TA and TR was evaluated using CEM and Granta cells transduced with GRE.Luc and NF-kB.Luc reporters. […] Luciferase activity in both cell lines (FIG. 2A, C). […] Attenuation of GR TA was further confirmed by Q-PCR analysis of known GR-target genes including GR chaperone FKBP51 (Refs. 12,14; incorporated by reference in their entireties), mediator of Gcs anti-inflammatory effects GILZ (22,23), transcriptional activator KLF9 (24) and inhibitor of cytokine production MKP-1 (25) (FIG. 2B, D and FIG. 7A, B).

Granta cells [5] = experiment: Apoptosis induction (PI staining sub-G1, PARP cleavage) in Granta cells; format: cell-based, human
Method: (§4) Apoptosis induction was evaluated using Western blot analysis of PARP cleavage and propidium iodine (PI) staining (Ref. 14; incorporated by reference in its entirety).
(§5) Cooperative anti-lymphoma effects of Dex and PI3K/Akt/mTOR inhibitors in vitro. PI3K/Akt/mTOR inhibitors were developed as anti-cancer drugs. To assess whether and how PI3K/Akt/mTOR inhibitors interacted with Dex anti-lymphoma effects, experiments were conducted to evaluate the efficacy of the combined treatment in vitro using such readouts as cell viability (MTT test) and apoptosis (PARP cleavage and sub-G1-phase cell population determined by FACS). The cytotoxic effect of Dex and PI3K inhibitors in wide concentration range (LY294002 1-500 uM, WM 0.1-25 uM, AZD8055 0.05-5 uM) was assessed (FIG. 8) and determined IC50 values after 24 h treatment (Table 8).
(§6) The effect of Dex combined with LY294002, AZD8055, WM or reference inhibitor Rapa was examined on apoptosis.

GR [6] = experiment: Western blot of GR nuclear translocation; format: cell-based, human; details: CEM and Granta cells; LY294002 50 uM, AZD8055 1 uM, Dex 1 uM 24 h
Method: (§7) Western blot analysis. Western blot analysis was performed (Ref 10; incorporated by reference in its entirety). The following antibodies were used: GR (H-300) (Santa Cruz Biotechnology, Dallas, TX), phospho-GR (Ser211), phospho-4E-BP1 (Thr37/46), phospho-Akt (Ser473), Akt, 4E-BP1, cleaved and full-length PARP, GAPDH, HDAC1 (Cell Signaling, San Jose, CA), REDD1 (Proteintech Group, Rosemont, IL).
To identify the molecular mechanisms underlying GR functional changes induced by PI3K/Akt/mTOR inhibitors, the effect of these compounds on major steps in GR activation was assessed: GR phosphorylation at Ser211 and nuclear translocation that are critical for GR TA (Refs. 27,28; incorporated by reference in their entireties).

REDD1 = REDD1 mRNA/protein expression (Q-PCR, Western blot) in CEM and Granta cells; format: cell-based, human
Method: as §1, §7
RNA extraction and Q-PCR. […]

CEM cells [7] = experiment: Apoptosis induction (PI staining sub-G1, PARP cleavage) in CEM cells; format: cell-based, human
Method: as §4, §5, §6

[8] = used alone for 6 days, LY294002 50 uM, AZD8055 1 uM, WM 10 uM, Dex 1 uM
[9] = systemic Dex 10 mg/kg every 48 h, 5 weeks, LY294002 20 mg/kg
[10] = combination with Dex, IC50 after 24 h treatment

C[C@@H]1C[C@H]2[C@@H]3CCC4=CC(=O)C=C[C@]4(C)[C@@]3(F)[C@@H](O)C[C@]2(C)[C@@]1(O)C(=O)CO [Dexamethasone]
decrease in tumor volume (Granta xenografts): ~40% | decrease of Granta survival (Granta cells [1]; [8]): 50-55% | femoral bone thickness ([2]; Dex 10 mg/kg vs control): tendency in decrease | reduction in dermal adipose thickness [2, 9]: ~70% | reduction in epidermal thickness [2, 9]: ~50% | decrease of CEM survival (CEM cells [3]; [8]): 50-55%

COC[C@H]1OC(=O)c2coc3c2[C@@]1(C)C1=C(C3=O)[C@@H]2CCC(=O)[C@@]2(C)C[C@H]1OC(C)=O [Wortmannin]
IC50 (Granta cells [1]): 11.9 µM | IC50 (CEM cells [3]): 9.14 µM

O=c1cc(N2CCOCC2)oc2c(-c3ccccc3)cccc12 [LY294002]
decrease in tumor volume (Granta xenografts): ~70% | IC50 (Granta cells [1]): 77.6 µM | IC50 (CEM cells [3]): 62 µM

COc1ccc(-c2ccc3c(N4CCOC[C@@H]4C)nc(N4CCOC[C@@H]4C)nc3n2)cc1CO [AZD8055]
Dex-induced GRE.Luciferase activity (GR [4]; 6 h pre-treatment, Dex 1 uM 24 h): inhibited Dex-induced GRE. Luciferase activity | basal GR activity (GRE.Luciferase) (GR [4]; applied individually): negatively affected basal GR activity | apoptosis (sub-G1-phase cell population), used alone, Granta cells (Granta cells [5]): stimulated apoptosis | IC50 (Granta cells [1]): 2.02 µM | type of interaction with Dex (isobologram analysis), Granta cells (Granta cells [1]; [10]): mostly additive | GR nuclear import (GR [6]): significantly prevented GR nuclear import | IC50 (CEM cells [3]): 1.36 µM | type of interaction with Dex (isobologram analysis), CEM cells (CEM cells [3]; [10]): mostly additive | effect on REDD1 induction by Dex (REDD1; CEM and Granta cells, 6 h pre-treatment (LY294002 50 uM, WM 10 uM, AZD8055 1 uM), then Dex 24 h): prevented REDD1 induction | basal REDD1 expression (REDD1; inhibitor without Dex, mRNA in CEM cells, protein more pronounced in Granta cells): blocked basal and glucocorticoid-induced REDD1 expression | apoptosis (sub-G1-phase cell population), used alone, CEM cells (CEM cells [7]): stimulated apoptosis

CO[C@H]1C[C@@H]2CC[C@@H](C)[C@@](O)(O2)C(=O)C(=O)N2CCCC[C@H]2C(=O)O[C@H]([C@H](C)C[C@@H]2CC[C@@H](O)[C@H](OC)C2)CC(=O)[C@H](C)/C=C(\C)[C@@H](O)[C@@H](OC)C(=O)[C@H](C)C[C@H](C)/C=C/C=C/C=C/1C [Rapamycin]
decrease in tumor volume (Granta xenografts): ~75%
